Results reported in ChEMBL document CHEMBL4725279, “Design and synthesis of peptide-based chimeric molecules to induce degradation of the estrogen and androgen receptors” (Bioorg Med Chem, 2020).

Key:
Type in all cases: cell-based
[1] = molecular target: T1, Protein cereblon/Aryl hydrocarbon receptor (Homo sapiens, UniProt P35869+Q96SW2); assay: Protac activity at CRBN/AhR in human MCF7 cells assessed as induction of AhR protein degradation by measuring AhR protein level at 20 uM incubated for 8 hrs by western blot analysis relative to lamin B; conditions: mcf7, 8 h
T1 sequence (P35869 whole entry): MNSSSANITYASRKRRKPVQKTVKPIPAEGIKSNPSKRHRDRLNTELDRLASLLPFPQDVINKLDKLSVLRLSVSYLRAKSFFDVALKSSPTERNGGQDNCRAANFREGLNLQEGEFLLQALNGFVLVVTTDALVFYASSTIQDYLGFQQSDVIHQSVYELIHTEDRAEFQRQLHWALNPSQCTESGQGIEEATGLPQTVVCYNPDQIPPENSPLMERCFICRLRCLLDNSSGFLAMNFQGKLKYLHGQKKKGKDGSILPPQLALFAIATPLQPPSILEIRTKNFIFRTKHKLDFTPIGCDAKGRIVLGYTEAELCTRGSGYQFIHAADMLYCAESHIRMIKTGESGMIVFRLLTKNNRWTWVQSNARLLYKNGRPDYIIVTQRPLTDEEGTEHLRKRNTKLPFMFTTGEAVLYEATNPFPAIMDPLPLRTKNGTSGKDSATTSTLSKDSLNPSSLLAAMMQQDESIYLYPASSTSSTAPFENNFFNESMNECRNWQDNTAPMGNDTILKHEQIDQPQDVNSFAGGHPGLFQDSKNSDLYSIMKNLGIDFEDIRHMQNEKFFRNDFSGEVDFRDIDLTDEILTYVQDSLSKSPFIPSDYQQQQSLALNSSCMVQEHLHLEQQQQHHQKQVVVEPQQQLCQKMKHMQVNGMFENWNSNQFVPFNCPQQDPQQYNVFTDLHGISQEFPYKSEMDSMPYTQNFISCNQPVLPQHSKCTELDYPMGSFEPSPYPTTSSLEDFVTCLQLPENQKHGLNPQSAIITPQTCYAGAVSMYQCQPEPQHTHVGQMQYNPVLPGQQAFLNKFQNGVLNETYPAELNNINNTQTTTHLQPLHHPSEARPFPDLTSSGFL
T1 sequence (Q96SW2 whole entry): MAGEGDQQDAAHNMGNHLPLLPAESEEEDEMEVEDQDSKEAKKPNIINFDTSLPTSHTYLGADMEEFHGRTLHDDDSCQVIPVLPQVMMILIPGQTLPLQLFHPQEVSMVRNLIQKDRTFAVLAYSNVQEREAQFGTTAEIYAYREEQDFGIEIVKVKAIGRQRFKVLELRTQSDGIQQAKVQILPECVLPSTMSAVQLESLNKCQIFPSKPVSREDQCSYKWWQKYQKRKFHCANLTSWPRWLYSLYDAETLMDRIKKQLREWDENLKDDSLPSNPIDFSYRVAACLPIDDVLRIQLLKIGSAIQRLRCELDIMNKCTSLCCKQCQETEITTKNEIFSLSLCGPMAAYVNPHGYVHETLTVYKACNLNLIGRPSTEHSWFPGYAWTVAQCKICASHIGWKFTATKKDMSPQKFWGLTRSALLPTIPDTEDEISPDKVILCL

[2] = molecular target: T2, Protein cereblon/Androgen receptor (Homo sapiens) (UniProt P10275+Q96SW2); assay: Protac activity at CRBN/AR in human MCF7 cells assessed as induction of AR protein degradation by measuring AR protein level at 20 uM incubated for 8 hrs in presence of ubiquitin activating inhibitor MLN7243 by western blot analysis relative to lamin B
T2 sequence (P10275 whole entry, looked up): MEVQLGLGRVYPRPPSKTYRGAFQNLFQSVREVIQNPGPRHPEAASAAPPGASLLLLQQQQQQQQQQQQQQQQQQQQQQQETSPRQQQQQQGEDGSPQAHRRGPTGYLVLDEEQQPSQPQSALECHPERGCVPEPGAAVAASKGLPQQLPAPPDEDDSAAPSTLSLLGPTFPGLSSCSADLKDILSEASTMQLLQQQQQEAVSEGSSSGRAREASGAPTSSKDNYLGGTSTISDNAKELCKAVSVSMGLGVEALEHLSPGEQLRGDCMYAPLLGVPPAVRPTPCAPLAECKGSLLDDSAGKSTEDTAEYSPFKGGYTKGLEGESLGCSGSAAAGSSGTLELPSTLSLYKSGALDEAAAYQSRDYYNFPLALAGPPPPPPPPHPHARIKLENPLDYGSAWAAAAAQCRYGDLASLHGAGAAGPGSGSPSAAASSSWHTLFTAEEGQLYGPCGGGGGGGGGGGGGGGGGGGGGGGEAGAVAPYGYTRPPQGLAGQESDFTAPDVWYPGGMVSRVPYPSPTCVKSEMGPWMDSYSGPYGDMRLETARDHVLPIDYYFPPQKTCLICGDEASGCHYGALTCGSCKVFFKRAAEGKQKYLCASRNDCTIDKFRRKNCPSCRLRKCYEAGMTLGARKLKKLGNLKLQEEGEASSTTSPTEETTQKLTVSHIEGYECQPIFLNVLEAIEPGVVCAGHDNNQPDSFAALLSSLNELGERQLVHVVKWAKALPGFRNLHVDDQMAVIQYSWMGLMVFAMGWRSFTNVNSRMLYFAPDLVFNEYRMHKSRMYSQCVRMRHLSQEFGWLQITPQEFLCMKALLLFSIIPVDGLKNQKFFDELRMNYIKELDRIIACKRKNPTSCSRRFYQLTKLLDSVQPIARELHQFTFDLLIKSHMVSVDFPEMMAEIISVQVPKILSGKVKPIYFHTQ
T2 sequence (Q96SW2 whole entry, looked up): as the sequence (Q96SW2 whole entry) above

[3] = molecular target: T3, Protein cereblon/Estrogen receptor (Homo sapiens) (UniProt P03372+Q96SW2); assay: Protac activity at CRBN/ERalpha in human MCF7 cells assessed as induction of ERalpha protein degradation by measuring ERalpha protein level at 10 uM incubated for 24 hrs by western blot analysis relative to lamin B
T3 sequence (P03372 whole entry, looked up): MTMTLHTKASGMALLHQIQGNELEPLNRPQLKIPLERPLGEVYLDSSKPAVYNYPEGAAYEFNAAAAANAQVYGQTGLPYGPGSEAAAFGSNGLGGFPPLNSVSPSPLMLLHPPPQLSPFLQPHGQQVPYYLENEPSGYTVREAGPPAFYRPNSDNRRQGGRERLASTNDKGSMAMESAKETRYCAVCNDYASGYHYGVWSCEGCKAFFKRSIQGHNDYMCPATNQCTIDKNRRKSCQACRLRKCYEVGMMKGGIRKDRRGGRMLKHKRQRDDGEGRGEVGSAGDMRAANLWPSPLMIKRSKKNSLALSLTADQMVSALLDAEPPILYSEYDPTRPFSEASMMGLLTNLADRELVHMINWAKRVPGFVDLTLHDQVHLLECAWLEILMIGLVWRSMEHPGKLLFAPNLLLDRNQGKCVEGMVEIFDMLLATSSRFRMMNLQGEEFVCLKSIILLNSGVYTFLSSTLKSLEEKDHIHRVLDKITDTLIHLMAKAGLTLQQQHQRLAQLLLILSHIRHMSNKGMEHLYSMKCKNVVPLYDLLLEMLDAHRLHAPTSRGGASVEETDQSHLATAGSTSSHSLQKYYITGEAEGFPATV
T3 sequence (Q96SW2 whole entry, looked up): as the sequence (Q96SW2 whole entry) above

[4] = molecular target: T1, Protein cereblon/Aryl hydrocarbon receptor; assay: Protac activity at CRBN/AhR in human MCF7 cells assessed as induction of AhR protein degradation by measuring AhR protein level at 20 uM incubated for 8 hrs in presence of ubiquitin activating inhibitor MLN7243 by western blot analysis relative to lamin B; conditions: mcf7, 8 h
[5] = molecular target: T1, Protein cereblon/Aryl hydrocarbon receptor; assay: Protac activity at CRBN/AhR in human MCF7 cells assessed as induction of AhR protein degradation by measuring AhR protein level at 20 uM incubated for 24 hrs by western blot analysis relative to lamin B; conditions: mcf7, 24 h
[6] = molecular target: T2, Protein cereblon/Androgen receptor (Homo sapiens); assay: Protac activity at CRBN/AR in human MCF7 cells assessed as induction of AR protein degradation by measuring AR protein level at 5 uM incubated for 24 hrs by western blot analysis relative to lamin B
[7] = molecular target: T2, Protein cereblon/Androgen receptor (Homo sapiens); assay: Protac activity at CRBN/AR in human MCF7 cells assessed as induction of AR protein degradation incubated for 8 to 24 hrs by western blot analysis; conditions: time hrs 8-24
[8] = molecular target: T2, Protein cereblon/Androgen receptor (Homo sapiens); assay: Protac activity at CRBN/AR in human MCF7 cells assessed as induction of AR protein degradation by measuring AR protein level at 10 uM incubated for 24 hrs by western blot analysis relative to lamin B
[9] = molecular target: T3, Protein cereblon/Estrogen receptor (Homo sapiens); assay: Protac activity at CRBN/ERalpha in human MCF7 cells assessed as induction of ERalpha protein degradation incubated for 8 to 24 hrs by western blot analysis; conditions: time hrs 8-24
[10] = molecular target: T2, Protein cereblon/Androgen receptor (Homo sapiens); assay: Protac activity at CRBN/AR in human MCF7 cells assessed as induction of AR protein degradation by measuring AR protein level at 20 uM incubated for 24 hrs by western blot analysis relative to lamin B
[11] = molecular target: T2, Protein cereblon/Androgen receptor (Homo sapiens); assay: Protac activity at CRBN/AR in human MCF7 cells assessed as induction of AR protein degradation by measuring AR protein level at 20 uM incubated for 8 hrs in presence of proteasome inhibitor, MG132 by western blot analysis relative to lamin B
[12] = molecular target: T3, Protein cereblon/Estrogen receptor (Homo sapiens); assay: Protac activity at CRBN/ERalpha in human MCF7 cells assessed as induction of ERalpha protein degradation by measuring ERalpha protein level at 10 uM incubated for 8 hrs by western blot analysis relative to lamin B
[13] = molecular target: T3, Protein cereblon/Estrogen receptor (Homo sapiens); assay: Protac activity at CRBN/ERalpha in human MCF7 cells assessed as induction of ERalpha protein degradation by measuring ERalpha protein level at 20 uM incubated for 8 hrs in presence of proteasome inhibitor, MG132 by western blot analysis relative to lamin B
[14] = molecular target: T1, Protein cereblon/Aryl hydrocarbon receptor; assay: Protac activity at CRBN/AhR in human MCF7 cells assessed as induction of AhR protein degradation by measuring AhR protein level at 20 uM incubated for 8 hrs in presence of proteasome inhibitor, MG132 by western blot analysis relative to lamin B; conditions: mcf7, 8 h
[15] = molecular target: T2, Protein cereblon/Androgen receptor (Homo sapiens); assay: Protac activity at CRBN/AR in CRBN siRNA-transfected human MCF7 cells assessed as induction of AR protein degradation by measuring AR protein level at 20 uM incubated for 8 hrs by western blot analysis relative to lamin B
[16] = molecular target: T2, Protein cereblon/Androgen receptor (Homo sapiens); assay: Protac activity at CRBN/AR in human MCF7 cells assessed as induction of AR protein degradation by measuring AR protein level at 10 uM incubated for 8 hrs by western blot analysis relative to lamin B
[17] = molecular target: T3, Protein cereblon/Estrogen receptor (Homo sapiens); assay: Protac activity at CRBN/ERalpha in CRBN siRNA-transfected human MCF7 cells assessed as induction of ERalpha protein degradation by measuring ERalpha protein level at 20 uM incubated for 8 hrs by western blot analysis relative to lamin B
[18] = molecular target: T1, Protein cereblon/Aryl hydrocarbon receptor; assay: Protac activity at CRBN/AhR in human MCF7 cells assessed as induction of AhR protein degradation by measuring AhR protein level at 10 uM incubated for 24 hrs by western blot analysis relative to lamin B; conditions: mcf7, 24 h
[19] = molecular target: T1, Protein cereblon/Aryl hydrocarbon receptor; assay: Protac activity at CRBN/AhR in human MCF7 cells assessed as induction of AhR protein degradation by measuring AhR protein level at 10 uM incubated for 8 hrs by western blot analysis relative to lamin B; conditions: mcf7, 8 h
[20] = molecular target: T3, Protein cereblon/Estrogen receptor (Homo sapiens); assay: Protac activity at CRBN/ERalpha in human MCF7 cells assessed as induction of ERalpha protein degradation by measuring ERalpha protein level at 20 uM incubated for 8 hrs by western blot analysis relative to lamin B
[21] = molecular target: T2, Protein cereblon/Androgen receptor (Homo sapiens); assay: Protac activity at CRBN/AR in human MCF7 cells assessed as induction of AR protein degradation by measuring AR protein level at 5 uM incubated for 8 hrs by western blot analysis relative to lamin B
[22] = molecular target: T3, Protein cereblon/Estrogen receptor (Homo sapiens); assay: Protac activity at CRBN/ERalpha in human MCF7 cells assessed as induction of ERalpha protein degradation by measuring ERalpha protein level at 20 uM incubated for 8 hrs in presence of ubiquitin activating inhibitor MLN7243 by western blot analysis relative to lamin B
[23] = molecular target: T3, Protein cereblon/Estrogen receptor (Homo sapiens); assay: Protac activity at CRBN/ERalpha in human MCF7 cells assessed as induction of ERalpha protein degradation by measuring ERalpha protein level at 5 uM incubated for 24 hrs by western blot analysis relative to lamin B
[24] = molecular target: T1, Protein cereblon/Aryl hydrocarbon receptor; assay: Protac activity at CRBN/AhR in human MCF7 cells assessed as induction of AhR protein degradation by measuring AhR protein level at 5 uM incubated for 24 hrs by western blot analysis relative to lamin B; conditions: mcf7, 24 h
[25] = molecular target: T2, Protein cereblon/Androgen receptor (Homo sapiens); assay: Protac activity at CRBN/AR in human MCF7 cells assessed as induction of AR protein degradation by measuring AR protein level at 20 uM incubated for 8 hrs by western blot analysis relative to lamin B
[26] = molecular target: T1, Protein cereblon/Aryl hydrocarbon receptor; assay: Protac activity at CRBN/AhR in human MCF7 cells assessed as induction of AhR protein degradation by measuring AhR protein level at 5 uM incubated for 8 hrs by western blot analysis relative to lamin B; conditions: mcf7, 8 h
[27] = molecular target: T3, Protein cereblon/Estrogen receptor (Homo sapiens); assay: Protac activity at CRBN/ERalpha in human MCF7 cells assessed as induction of ERalpha protein degradation by measuring ERalpha protein level at 5 uM incubated for 8 hrs by western blot analysis relative to lamin B
[28] = molecular target: T3, Protein cereblon/Estrogen receptor (Homo sapiens); assay: Protac activity at CRBN/ERalpha in human MCF7 cells assessed as induction of ERalpha protein degradation by measuring ERalpha protein level at 20 uM incubated for 24 hrs by western blot analysis relative to lamin B

Structure (SMILES): CC[C@H](C)[C@@H]1NC(=O)[C@H](NC(=O)[C@@H](N)CCCCNC(=O)CCOCCOCCOCCOCCOCCNc2cccc3c2C(=O)N(C2CCC(=O)NC2=O)C3=O)CSSC[C@@H](C(=O)N[C@@H](CCCNC(=N)N)C(=O)N[C@@H](CC(C)(C)C)C(=O)N[C@@H](CC(C)C)C(=O)N[C@@H](CCC(N)=O)C(=O)NCC(=O)NCC(=O)NCC(=O)N[C@@H](CCCNC(=N)N)C(=O)N[C@@H](CCCNC(=N)N)C(=O)N[C@@H](CCCNC(=N)N)C(=O)N[C@@H](CCCNC(=N)N)C(=O)N[C@@H](CCCNC(=N)N)C(=O)N[C@@H](CCCNC(=N)N)C(=O)N[C@@H](CCCNC(=N)N)C(N)=O)NC(=O)[C@H](CC(C)C)NC1=O (stereo partly drawn)
- Activity [1]: 115%
- Activity [2]: 119%
- Activity [3]: 64%
- Activity [4]: 107%
- Activity [5]: 133%
- Activity [6]: 84%
- Activity [7]: Dose-dependent effect
- Activity [8]: 89%
- Activity [9]: Dose-dependent effect
- Activity [10]: 79%
- Activity [11]: 92%
- Activity [12]: 85%
- Activity [13]: 78%
- Activity [14]: 123%
- Activity [15]: 93%
- Activity [16]: 80%
- Activity [17]: 93%
- Activity [18]: 111%
- Activity [19]: 123%
- Activity [20]: 57%
- Activity [21]: 97%
- Activity [22]: 117%
- Activity [23]: 85%
- Activity [24]: 101%
- Activity [25]: 51%
- Activity [26]: 124%
- Activity [27]: 108%
- Activity [28]: 51%
